# Patent publication US8481459B2, “Chemical inhibitors of ethylene biosynthesis” (Academia Sinica, priority 2010, dated 2013)
# System: gene expression in etiolated eto1-4 seedlings
# Assay: Transcriptional profiling (ATH1 GeneChip microarray) of etiolated eto1-4 seedlings
# Format: in vivo, Arabidopsis thaliana
# Settings: ratio eto1-4 treated to eto1-4 (no treatment)
# Experimental: For chemical treatments, seeds were sown on 0.5×MS agar medium supplemented with 10 μM chemicals (AVG, compounds 9393, 9370, and 7303) or DMSO (as control). Arabidopsis seeds were stratified in the dark at 4° C. for 4 days, then germinated in the dark for 3 days at 22° C. Approximately 2,000 etiolated seedlings of the wild type or eto1-4 were used to collect tissues for preparation of total RNA in each microarray experiment with Arabidopsis ATH1 GeneChip (Affymetrix). Extraction of RNA followed an established protocol (Chang, et al. (1993) Plant Mol. Biol. Rep. 11, 113-117). Total RNA (10 μg) was used to prepare biotinylated cRNA for hybridization to ATH1 GeneChip in the experiments disclosed herein. Experiments were repeated by 2 independent biological duplicates, and candidate genes present in both experiments were selected for further analysis. The MASS method was used for data analysis and normalization by all sample medium. Candidate genes were selected by the following criteria. First, genes with 1.5-fold differential expression between the wild type and eto1-4 were selected as the master gene pool, which was then used for comparison in treatments with AVG and individual exemplary compounds. Data were presented in hierarchical clustering and Venn diagram format. Agilent GeneSpring GX and Bioconductor software were used to analyze the expression profile data. Gene Ontology descriptions were generated by GeneSpring GX and further referred to the TAR GO database. Raw data are available in the GEO database (http://www.ncbi.nlm.nih.gov/geo) with Accession no. GSE20897.
# The filtered and normalized expression data set from 22810 probes on the ATH1 Genechip was used for hierarchical clustering of gene expression profiles for comparison between AVG and the exemplary invention compounds in eto1-4. It was identified that 1,446 genes show at least 1.5-fold difference in expression between the WT and eto1-4 and used them as the master gene pool for clustering analysis (FIG. 7A). […] These genes likely contribute to the etiolated phenotype of eto1-4 by responding to elevated endogenous ethylene. To determine whether the exemplary compounds have specific r overlapping functions with AVG to suppress the eto1-4 phenotype, genes that are regulated by individual exemplary invention compounds and AVG for Venn diagram analysis were clustered (FIG. 7B). More than 63% of genes (356/561 for compound 9393; 389/561 for compound 9370; 399/561 for compound 7303; FIG. 7B) with expression associated with AVG were co-regulated by the exemplary invention compounds, which indicates an overlap function in suppression of the ethylene phenotype in eto1-4. […] Next genes co-regulated by all of the exemplary invention compounds and AVG were examined by performing a clustering analysis using the co-regulated genes identified in FIG. 7B: 356 (compound 9393 vs AVG), 389 (compound 9370 vs AVG) and 399 genes (compound 7303 vs AVG). It was uncovered that 276 genes were co-regulated by all of the exemplary invention compounds and AVG (FIG. 7C and Table 2). On the basis of GO descriptions generated by Gene Spring GX and TAIR database, the 276 genes were divided into subgroups related to their biological functions (Table 2). […] In addition, stress- and pathogenesis-related genes were among the co-regulated genes, possibly because ethylene is involved in both biotic and abiotic stresses.
# Genes (1446 non-redundant loci) were selected by 1.5-fold differential expression between eto1-4 and WT as the master pool for analysis. These genes were used for comparison between chemical treatments by AVG and the exemplary invention compounds. The finalized 276 genes that are co-regulated by AVG and all of the exemplary invention compounds are shown. Locus ID also present in Nemhauser et al. (Nemhauser, et al. (2006) Cell 126, 467-475).
structure (smiles),measurement,value
Cc1ccc(C2CC(=O)c3cnc(NC4CCCC4)nc3C2)cc1 (stereo not shown) [Compound 9370],Signal Fold Change AT1G73830 bHLH protein,0.37
same,"Signal Fold Change AT1G75500, unknown biological function",3.37
same,"Signal Fold Change AT1G76220, unknown biological function",3.55
same,"Signal Fold Change AT1G76500, photomorphogenesis, DNA-binding protein",0.42
same,Signal Fold Change AT1G76540 cell division control protein,2.53
same,"Signal Fold Change AT1G76790, unknown biological function",3.90
same,Signal Fold Change AT1G78240 dehydration-responsive protein,0.47
same,Signal Fold Change AT1G80380 phosphoribulokinase,2.14
same,"Signal Fold Change AT2G01910, microtubule nucleation, microtubule associated protein (MAP65/ASE1) protein",2.62
same,Signal Fold Change AT2G02820 myb transcription factor (MYB88),4.00
same,Signal Fold Change AT2G02850 plantacyanin,0.23
same,Signal Fold Change AT2G16580 auxin-responsive protein,2.83
same,"Signal Fold Change AT2G16990, unknown biological function",2.79
same,Signal Fold Change AT2G19590 ACC oxidase,0.28
same,"Signal Fold Change AT2G19970, unknown biological function",3.06
same,"Signal Fold Change AT2G20080, unknown biological function",3.75
same,"Signal Fold Change AT2G20670, unknown biological function",2.45
same,"Signal Fold Change AT2G21820, unknown biological function",0.85
same,Signal Fold Change AT2G21880 Ras-related GTP-binding protein,3.99
same,Signal Fold Change AT2G22860 phytosulfokines 2 (PSK2),2.67
same,Signal Fold Change AT2G24150 expressed protein (response to hormone stimulus),2.23
same,Signal Fold Change AT2G25900 zinc finger (CCCH-type) protein,1.48
same,Signal Fold Change AT2G26070 expressed protein (response to ethylene stimulus),0.28
same,Signal Fold Change AT2G26440 pectinesterase protein,0.38
same,Signal Fold Change AT2G26740 epoxide hydrolase,0.23
same,Signal Fold Change AT2G27140 heat shock protein,2.43
same,"Signal Fold Change AT2G27370, unknown biological function",2.26
same,"Signal Fold Change AT2G28305, unknown biological function",3.16
same,"Signal Fold Change AT2G28410, unknown biological function",2.92
same,Signal Fold Change AT2G29340 short-chain dehydrogenase,0.30
same,"Signal Fold Change AT2G29440, toxin catabolic process, glutathione S-transferase",0.20
same,Signal Fold Change AT2G30360 CBL-interacting protein kinase 11 (CIPK11),2.02
same,Signal Fold Change AT2G33380 calcium-binding RD20 protein,0.21
same,"Signal Fold Change AT2G33990, unknown biological function",2.72
same,"Signal Fold Change AT2G34300, unknown biological function",0.33
same,Signal Fold Change AT2G34500 cytochrome P450,4.05
same,"Signal Fold Change AT2G34510, unknown biological function",2.70
same,"Signal Fold Change AT2G34700, unknown biological function",1.03
same,Signal Fold Change AT2G35300 late embryogenesis abundant group 1 domain-containing protein,1.92
same,Signal Fold Change AT2G35710 glycogenin glucosyltransferase,2.23
same,Signal Fold Change AT2G36350 protein kinase,0.55
same,"Signal Fold Change AT2G36410, unknown biological function",2.60
same,Signal Fold Change AT2G37130 peroxidase 21,2.23
same,"Signal Fold Change AT2G38760, unknown biological function",4.10
same,"Signal Fold Change AT2G38790, unknown biological function",1.99
same,Signal Fold Change AT2G39010 aquaporin,2.05
same,"Signal Fold Change AT2G39310, unknown biological function",2.73
same,"Signal Fold Change AT2G39980, unknown biological function",0.14
same,Signal Fold Change AT2G40420 amino acid transporter,2.03
same,"Signal Fold Change AT2G41090, unknown biological function",0.19
same,"Signal Fold Change AT2G41230, unknown biological function",0.07
same,"Signal Fold Change AT2G42320, unknown biological function",0.53
same,Signal Fold Change AT2G43050 pectinesterase protein,2.35
same,Signal Fold Change AT2G43535 trypsin inhibitor,6.13
same,Signal Fold Change AT2G44110 seven transmembrane MLO protein,0.39
same,Signal Fold Change AT2G44130 kelch repeat containing F-box protein,3.39
same,Signal Fold Change AT2G47510 fumarate hydratase,0.43
same,Signal Fold Change AT2G47550 pectinesterase protein,0.39
same,"Signal Fold Change AT2G48030, unknown biological function",2.61
same,Signal Fold Change AT3G04010 glycosyl hydrolase,1.98
same,"Signal Fold Change AT3G05990, signal transduction, phosphodiesterase leucine-rich repeat protein",2.15
same,"Signal Fold Change AT3G09020, unknown biological function",3.28
same,Signal Fold Change AT3G09780 protein kinase,0.50
same,"Signal Fold Change AT3G10080, unknown biological function",2.52
same,Signal Fold Change AT3G10340 phenylalanine ammonia-lyase,1.94
same,"Signal Fold Change AT3G11550, unknown biological function",2.39
same,"Signal Fold Change AT3G12030, DNA repair, expressed protein",2.17
same,Signal Fold Change AT3G12500 basic endocexemplary inase,1.91
same,"Signal Fold Change AT3G13980, unknown biological function",6.74
same,Signal Fold Change AT3G14370 protein kinase,0.30
